Assay results from paper PMC4854315, “Discovery of a novel allosteric inhibitor-binding site in ERK5: comparison with the canonical kinase hinge ATP-binding site” (Acta Crystallographica. Section D, Structural Biology, 2016).

Key:
Test in all cases: Z'-LYTE kinase panel
Type in all cases: biochemical
[1] = molecular target: T1, MATK (HYL) (Homo sapiens, UniProt P42679)
T1 construct: purchased ThermoFisher (SelectScreen, Z'-LYTE)
T1 sequence (P42679 1-507): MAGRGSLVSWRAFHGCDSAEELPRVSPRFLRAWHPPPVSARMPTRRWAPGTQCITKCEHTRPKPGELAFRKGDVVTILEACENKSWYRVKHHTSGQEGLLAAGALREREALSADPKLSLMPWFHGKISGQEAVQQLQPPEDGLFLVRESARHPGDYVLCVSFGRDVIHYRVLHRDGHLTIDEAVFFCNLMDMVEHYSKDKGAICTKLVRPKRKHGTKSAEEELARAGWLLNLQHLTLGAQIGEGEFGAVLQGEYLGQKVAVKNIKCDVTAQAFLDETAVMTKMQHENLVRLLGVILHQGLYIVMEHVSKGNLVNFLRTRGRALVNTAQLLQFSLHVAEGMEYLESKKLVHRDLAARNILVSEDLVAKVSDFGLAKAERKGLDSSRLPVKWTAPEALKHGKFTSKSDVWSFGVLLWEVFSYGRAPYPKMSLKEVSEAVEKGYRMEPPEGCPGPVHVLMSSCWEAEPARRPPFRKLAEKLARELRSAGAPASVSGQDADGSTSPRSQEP
Procedure, shortened: (§1)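 The 225-kinase standard panel was run using the Z′-LYTE protocol, and inhibition was expressed as a percentage relative to uninhibited activity at 10 µM compound.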

[2] = molecular target: T2, ERBB4 (HER4) (Homo sapiens, UniProt Q15303)
T2 construct: purchased ThermoFisher (SelectScreen, Z'-LYTE)
Procedure, shortened: as §1

[3] = molecular target: T3, FES (FPS) (Homo sapiens, UniProt P07332)
T3 construct: purchased ThermoFisher (SelectScreen, Z'-LYTE)
Procedure, shortened: as §1

[4] = molecular target: T4, PRKD1 (PKC mu) (Homo sapiens, UniProt Q15139)
T4 construct: purchased ThermoFisher (SelectScreen, Z'-LYTE)
T4 sequence (Q15139 1-912): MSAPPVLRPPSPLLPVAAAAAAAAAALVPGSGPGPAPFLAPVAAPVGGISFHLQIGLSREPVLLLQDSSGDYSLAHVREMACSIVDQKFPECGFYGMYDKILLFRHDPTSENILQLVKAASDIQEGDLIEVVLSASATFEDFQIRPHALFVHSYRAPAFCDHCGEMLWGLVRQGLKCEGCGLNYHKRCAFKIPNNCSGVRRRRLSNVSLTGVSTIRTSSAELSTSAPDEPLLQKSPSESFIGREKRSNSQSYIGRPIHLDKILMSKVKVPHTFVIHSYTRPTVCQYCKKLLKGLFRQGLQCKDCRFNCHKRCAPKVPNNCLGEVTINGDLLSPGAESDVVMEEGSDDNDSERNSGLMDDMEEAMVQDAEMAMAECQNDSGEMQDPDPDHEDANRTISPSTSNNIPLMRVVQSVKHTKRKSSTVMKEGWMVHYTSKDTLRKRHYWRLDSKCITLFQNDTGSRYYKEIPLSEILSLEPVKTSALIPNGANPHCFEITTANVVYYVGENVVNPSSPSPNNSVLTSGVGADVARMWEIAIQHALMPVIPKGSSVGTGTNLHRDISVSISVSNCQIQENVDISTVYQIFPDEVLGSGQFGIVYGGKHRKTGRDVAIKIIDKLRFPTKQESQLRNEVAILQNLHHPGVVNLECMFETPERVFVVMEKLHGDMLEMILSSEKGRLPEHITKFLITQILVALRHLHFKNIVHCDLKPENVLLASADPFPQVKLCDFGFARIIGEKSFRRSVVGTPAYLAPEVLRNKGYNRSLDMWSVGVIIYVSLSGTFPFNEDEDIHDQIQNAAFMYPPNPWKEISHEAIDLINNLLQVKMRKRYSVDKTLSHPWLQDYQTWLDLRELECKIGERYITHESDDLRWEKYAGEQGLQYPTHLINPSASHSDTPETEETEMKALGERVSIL
Procedure, shortened: as §1

[5] = molecular target: T5, MST4 (Homo sapiens, UniProt Q9P289)
T5 construct: purchased ThermoFisher (SelectScreen, Z'-LYTE)
Procedure, shortened: as §1

[6] = molecular target: T6, PAK2 (PAK65) (Homo sapiens, UniProt Q13177)
T6 construct: purchased ThermoFisher (SelectScreen, Z'-LYTE)
Procedure, shortened: as §1

[7] = molecular target: T7, PRKCI (PKC iota) (Homo sapiens, UniProt P41743)
T7 construct: purchased ThermoFisher (SelectScreen, Z'-LYTE)
T7 sequence (P41743 1-596): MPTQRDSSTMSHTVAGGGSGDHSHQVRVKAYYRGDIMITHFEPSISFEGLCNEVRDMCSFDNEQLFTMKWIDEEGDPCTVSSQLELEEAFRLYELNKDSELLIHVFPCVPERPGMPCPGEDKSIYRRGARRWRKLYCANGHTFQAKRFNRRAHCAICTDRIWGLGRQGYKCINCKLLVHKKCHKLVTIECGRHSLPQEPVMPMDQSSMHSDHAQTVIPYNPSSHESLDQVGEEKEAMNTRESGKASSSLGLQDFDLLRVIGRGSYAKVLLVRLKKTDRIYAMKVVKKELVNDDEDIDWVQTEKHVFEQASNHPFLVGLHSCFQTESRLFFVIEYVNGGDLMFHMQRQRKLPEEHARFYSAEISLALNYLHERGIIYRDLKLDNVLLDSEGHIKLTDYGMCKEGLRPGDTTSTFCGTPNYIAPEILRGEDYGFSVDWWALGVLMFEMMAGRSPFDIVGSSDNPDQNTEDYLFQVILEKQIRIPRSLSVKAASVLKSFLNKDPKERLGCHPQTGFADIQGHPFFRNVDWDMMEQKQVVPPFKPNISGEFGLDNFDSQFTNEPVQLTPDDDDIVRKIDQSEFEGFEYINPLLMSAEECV
Procedure, shortened: as §1

T3 sequence (P07332 whole entry): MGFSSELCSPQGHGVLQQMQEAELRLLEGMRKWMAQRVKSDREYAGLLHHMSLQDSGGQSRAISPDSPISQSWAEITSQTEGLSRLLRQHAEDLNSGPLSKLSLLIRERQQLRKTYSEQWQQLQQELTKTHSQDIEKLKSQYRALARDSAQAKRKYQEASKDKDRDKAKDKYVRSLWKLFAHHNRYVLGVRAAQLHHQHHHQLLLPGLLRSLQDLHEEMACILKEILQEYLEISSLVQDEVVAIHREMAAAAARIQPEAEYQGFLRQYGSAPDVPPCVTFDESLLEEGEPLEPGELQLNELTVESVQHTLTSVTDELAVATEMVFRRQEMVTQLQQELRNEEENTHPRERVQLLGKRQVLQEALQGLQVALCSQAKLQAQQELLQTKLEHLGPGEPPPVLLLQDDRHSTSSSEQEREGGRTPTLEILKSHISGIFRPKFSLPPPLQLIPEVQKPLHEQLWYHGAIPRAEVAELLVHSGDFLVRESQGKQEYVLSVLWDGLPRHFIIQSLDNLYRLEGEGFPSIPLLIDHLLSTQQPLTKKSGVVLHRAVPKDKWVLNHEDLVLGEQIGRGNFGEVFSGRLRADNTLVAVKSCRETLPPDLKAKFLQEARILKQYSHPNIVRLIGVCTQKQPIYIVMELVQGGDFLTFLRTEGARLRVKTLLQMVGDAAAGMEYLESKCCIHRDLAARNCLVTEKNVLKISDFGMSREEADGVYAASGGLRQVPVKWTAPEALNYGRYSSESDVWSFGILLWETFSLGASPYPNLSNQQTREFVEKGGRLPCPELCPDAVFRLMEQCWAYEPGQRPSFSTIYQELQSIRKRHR
T6 sequence (Q13177 whole entry): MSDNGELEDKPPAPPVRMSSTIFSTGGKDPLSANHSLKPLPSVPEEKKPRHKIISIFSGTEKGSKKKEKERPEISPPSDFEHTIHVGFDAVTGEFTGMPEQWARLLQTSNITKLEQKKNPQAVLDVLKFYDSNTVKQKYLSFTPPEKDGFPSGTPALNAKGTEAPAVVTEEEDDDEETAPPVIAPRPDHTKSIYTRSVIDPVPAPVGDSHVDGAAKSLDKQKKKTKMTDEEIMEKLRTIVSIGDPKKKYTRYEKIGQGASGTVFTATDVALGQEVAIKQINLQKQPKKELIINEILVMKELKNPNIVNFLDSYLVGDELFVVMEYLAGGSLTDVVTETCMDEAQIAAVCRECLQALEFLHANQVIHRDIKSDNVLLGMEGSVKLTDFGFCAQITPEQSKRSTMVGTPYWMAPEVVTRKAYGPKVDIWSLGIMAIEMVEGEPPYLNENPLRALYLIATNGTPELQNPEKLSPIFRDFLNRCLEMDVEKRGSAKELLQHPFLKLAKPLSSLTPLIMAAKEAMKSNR
T5 sequence (Q9P289 whole entry): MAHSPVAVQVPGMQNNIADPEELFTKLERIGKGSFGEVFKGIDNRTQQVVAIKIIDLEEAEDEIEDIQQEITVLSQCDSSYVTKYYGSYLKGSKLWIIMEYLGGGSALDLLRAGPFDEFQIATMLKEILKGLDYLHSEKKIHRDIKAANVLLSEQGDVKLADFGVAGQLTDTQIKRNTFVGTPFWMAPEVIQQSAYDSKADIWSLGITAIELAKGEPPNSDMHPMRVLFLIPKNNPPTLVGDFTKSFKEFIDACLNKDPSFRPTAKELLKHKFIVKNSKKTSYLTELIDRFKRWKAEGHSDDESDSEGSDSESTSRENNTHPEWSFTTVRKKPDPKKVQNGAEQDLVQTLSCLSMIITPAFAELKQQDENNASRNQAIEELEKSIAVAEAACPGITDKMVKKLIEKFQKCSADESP
T2 sequence (Q15303 26-1308): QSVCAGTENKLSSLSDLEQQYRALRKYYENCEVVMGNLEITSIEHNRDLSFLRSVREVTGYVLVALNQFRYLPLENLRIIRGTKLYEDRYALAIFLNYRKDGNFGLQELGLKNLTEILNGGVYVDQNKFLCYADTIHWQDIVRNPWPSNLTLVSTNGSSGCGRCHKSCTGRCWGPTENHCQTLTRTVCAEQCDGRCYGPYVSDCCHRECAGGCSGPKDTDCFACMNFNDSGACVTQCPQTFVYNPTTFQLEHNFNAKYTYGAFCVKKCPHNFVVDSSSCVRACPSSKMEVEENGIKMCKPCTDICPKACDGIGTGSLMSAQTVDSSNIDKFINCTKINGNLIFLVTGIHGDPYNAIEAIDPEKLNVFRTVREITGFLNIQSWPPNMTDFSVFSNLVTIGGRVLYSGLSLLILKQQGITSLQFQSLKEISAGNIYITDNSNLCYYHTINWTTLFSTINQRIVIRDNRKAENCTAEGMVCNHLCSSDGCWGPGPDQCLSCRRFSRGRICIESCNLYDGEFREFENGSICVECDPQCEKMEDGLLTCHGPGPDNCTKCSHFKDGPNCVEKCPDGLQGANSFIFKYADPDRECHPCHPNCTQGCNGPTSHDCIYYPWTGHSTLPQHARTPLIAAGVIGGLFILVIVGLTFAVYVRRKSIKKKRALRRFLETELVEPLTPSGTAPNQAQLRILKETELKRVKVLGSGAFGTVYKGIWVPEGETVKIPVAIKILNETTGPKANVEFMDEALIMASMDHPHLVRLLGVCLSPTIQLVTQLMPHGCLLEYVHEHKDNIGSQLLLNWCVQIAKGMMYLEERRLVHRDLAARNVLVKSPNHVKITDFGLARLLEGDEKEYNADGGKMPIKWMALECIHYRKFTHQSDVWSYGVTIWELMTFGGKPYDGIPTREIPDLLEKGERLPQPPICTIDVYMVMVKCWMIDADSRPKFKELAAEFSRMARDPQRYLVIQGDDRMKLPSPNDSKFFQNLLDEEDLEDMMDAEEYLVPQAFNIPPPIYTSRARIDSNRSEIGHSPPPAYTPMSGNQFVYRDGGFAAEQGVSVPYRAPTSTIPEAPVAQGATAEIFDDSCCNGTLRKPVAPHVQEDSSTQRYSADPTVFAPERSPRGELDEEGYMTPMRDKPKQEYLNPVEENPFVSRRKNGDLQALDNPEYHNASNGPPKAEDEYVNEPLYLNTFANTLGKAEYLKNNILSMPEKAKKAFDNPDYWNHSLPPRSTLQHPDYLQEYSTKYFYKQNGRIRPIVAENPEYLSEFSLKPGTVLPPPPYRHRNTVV

| Compound | MATK (HYL) % Inhibition ([1]; 10 µM compound, ATP Km app) [%] | ERBB4 (HER4) % Inhibition ([2]; 10 µM compound, ATP Km app) [%] | FES (FPS) % Inhibition ([3]; 10 µM compound, ATP Km app) [%] | PRKD1 (PKC mu) % Inhibition ([4]; 10 µM compound, ATP Km app) [%] | MST4 % Inhibition ([5]; 10 µM compound, ATP Km app) [%] | PAK2 (PAK65) % Inhibition ([6]; 10 µM compound, ATP Km app) [%] | PRKCI (PKC iota) % Inhibition ([7]; 10 µM compound, ATP Km app) [%] | inhibition at 10 µM [1] [%] | inhibition at 10 µM [2] [%] | inhibition at 10 µM [3] [%] | inhibition at 10 µM [4] [%] | inhibition at 10 µM [5] [%] | inhibition at 10 µM [6] [%] | inhibition at 10 µM [7] [%] |
| --- | --- | --- | --- | --- | --- | --- | --- | --- | --- | --- | --- | --- | --- | --- |
| XMD8-92 [Compound 2, reference compound] | 2.46 | 16 | 78 | 17 | 15 | 12 | 0.17 | – | – | – | – | – | – | – |
| Cc1ncc(-c2nc(Nc3ccc(C(=O)NCCN4CCCCC4)cc3)ncc2F)n1C(C)C [Compound 3] | – | – | – | – | – | – | – | 0.522 | 17 | 106 | 93 | 75 | 54 | 5.66 |
| Cc1cc(Nc2nc(N)nn2C(=O)NC(C)C)ccc1Cl [Compound 5] | – | – | – | – | – | – | – | -1.63 | 7 | 9 | 15 | 43 | -1.24 | -6 |
